The source of these data is ChEMBL document CHEMBL4184139, “Adamantyl- and other polycyclic cage-based conjugates of desferrioxamine B (DFOB) for treating iron-mediated toxicity in cell models of Parkinson's disease” (Bioorg Med Chem Lett, 2017).

Calls of active or inactive are those of the source. No cut-off for these calls is given here.

Tested on in one data set: not listed separately
Nature of the data set: Binding affinity to Fe3+ assessed as [M+2H]+ adduct formation by LC-MS/MS analysis.
Conditions: not given
As to `CC(=O)N(O)CCCCCNC(=O)CCC(=O)N(O)CCCCCNC(=O)CCC(=O)N(O)CCCCCNC(=O)C12CC3CC(CC(Cl)(C3)C1)C2`, the result was Active.

For a further data set, the system named is SK-N-BE(2)-M17. Nature of the data set: Cytoprotection against H2O2-induced cell death in human SK-N-BE(2)-M17 cells assessed as increase in cell viability at 100 uM pretreated for 2 hrs followed by 1 mM H2O2 addition measured after 24 hrs by LDH assay. Type of data set: functional, cell-based.
Conditions: not given
For `CC(=O)N(O)CCCCCNC(=O)CCC(=O)N(O)CCCCCNC(=O)CCC(=O)N(O)CCCCCNC(=O)C12CC3CC(CC(Cl)(C3)C1)C2`, the outcome was inactive.

The subject of a further data set is Astrocyte. Nature of the data set: Cytoprotection against H2O2-induced cell death in BSO pretreated C57BL6/J mouse brain primary astrocytes assessed as increase in cell viability at 10 uM pretreated for 2 hrs followed by H2O2 addition measured after 24 hrs by MTT assay. Format: functional, cell-based.
Conditions: not given
For orientation: Formazan colour is commonly taken as a measure of viable cells.
`CC(=O)N(O)CCCCCNC(=O)CCC(=O)N(O)CCCCCNC(=O)CCC(=O)N(O)CCCCCNC(=O)C12CC3CC(CC(Cl)(C3)C1)C2`: the outcome was Active.

The test system of the next data set is SK-N-BE(2)-M17. Nature of the data set: Cytoprotection against H2O2-induced cell death in human SK-N-BE(2)-M17 cells assessed as increase in cell viability at 100 uM pretreated for 2 hrs followed by 1 mM H2O2 addition measured after 24 hrs by MTT assay. Format: functional, cell-based.
Conditions: not given
On to `CC(=O)N(O)CCCCCNC(=O)CCC(=O)N(O)CCCCCNC(=O)CCC(=O)N(O)CCCCCNC(=O)C12CC3CC(CC(Cl)(C3)C1)C2`, for which the outcome was inactive.

For a further data set, the system named is SK-N-BE(2)-M17. Nature of the data set: Cytoprotection against PQ-induced cell death in human SK-N-BE(2)-M17 cells assessed as increase in cell viability at 100 uM treated 2 hrs post 2 mM PQ treatment measured after 24 hrs by LDH assay. Type of data set: functional, cell-based.
Conditions: not given
For the molecule `CC(=O)N(O)CCCCCNC(=O)CCC(=O)N(O)CCCCCNC(=O)CCC(=O)N(O)CCCCCNC(=O)C12CC3CC(CC(Cl)(C3)C1)C2`, the outcome was inactive.

Tested on in another data set: not listed separately
Nature of the data set: Octanol-water partition coefficient, log P of the compound at 1 mg by RP-HPLC analysis. Type of data set: physicochemical.
Conditions: not given
In general, logP refers to a log measure of how a compound divides between an organic and an aqueous phase. Read a high logP as a more lipophilic compound. Molecule `CC(=O)N(O)CCCCCNC(=O)CCC(=O)N(O)CCCCCNC(=O)CCC(=O)N(O)CCCCCNC(=O)C12CC3CC(CC(Cl)(C3)C1)C2` registered a logP of 1.84.

For another data set, the system named is SK-N-BE(2)-M17. Nature of the data set: Cytoprotection against PQ-induced cell death in human SK-N-BE(2)-M17 cells assessed as increase in cell viability at 100 uM treated post 200 uM Fecl3 and 1 mM PQ treatment measured after 24 hrs by MTT assay. Format: functional, cell-based.
Conditions: not given
With `CC(=O)N(O)CCCCCNC(=O)CCC(=O)N(O)CCCCCNC(=O)CCC(=O)N(O)CCCCCNC(=O)C12CC3CC(CC(Cl)(C3)C1)C2`, the result was Active.

A further data set concerns SK-N-BE(2)-M17. Nature of the data set: Cytotoxicity against human SK-N-BE(2)-M17 cells at 100 uM 24 hrs by MTT assay. Type of data set: cell-based. Particulars: sk-n-be(2)-m17, 24 h.
In the case of `CC(=O)N(O)CCCCCNC(=O)CCC(=O)N(O)CCCCCNC(=O)CCC(=O)N(O)CCCCCNC(=O)C12CC3CC(CC(Cl)(C3)C1)C2`, the Activity entry is “Non-Toxic”.

Another data set relates to SK-N-BE(2)-M17. Nature of the data set: Cytoprotection against PQ-induced cell death in human SK-N-BE(2)-M17 cells assessed as increase in cell viability at 100 uM pretreated for 2 hrs followed by 1 mM PQ addition measured after 24 hrs by LDH assay. Type of data set: functional, cell-based.
Conditions: not given
Regarding `CC(=O)N(O)CCCCCNC(=O)CCC(=O)N(O)CCCCCNC(=O)CCC(=O)N(O)CCCCCNC(=O)C12CC3CC(CC(Cl)(C3)C1)C2`, the result was inactive.

For a further data set, the system named is Astrocyte. Nature of the data set: Cytoprotection against H2O2-induced cell death in BSO pretreated C57BL6/J mouse brain primary astrocytes assessed as increase in cell viability at 10 uM pretreated for 2 hrs followed by H2O2 addition measured after 24 hrs by LDH release assay. Type of data set: functional, cell-based.
Conditions: not given
For the molecule `CC(=O)N(O)CCCCCNC(=O)CCC(=O)N(O)CCCCCNC(=O)CCC(=O)N(O)CCCCCNC(=O)C12CC3CC(CC(Cl)(C3)C1)C2`, the outcome was Active.

Tested on in a further data set: not listed separately
Nature of the data set: Binding affinity to Fe3+ assessed as change in retention time for compound-Fe3+ complex by RP-HPLC analysis relative to free ligand.
Conditions: not given
Consider `CC(=O)N(O)CCCCCNC(=O)CCC(=O)N(O)CCCCCNC(=O)CCC(=O)N(O)CCCCCNC(=O)C12CC3CC(CC(Cl)(C3)C1)C2`, for which the Retention time is 0.83 min.

In a further data set the test system is SK-N-BE(2)-M17. Nature of the data set: Cytoprotection against H2O2-induced cell death in human SK-N-BE(2)-M17 cells assessed as increase in cell viability at 100 uM treated 2 hrs post 0.8 mM H2O2 treatment measured after 24 hrs by LDH assay. Format: functional, cell-based.
Conditions: not given
In the case of `CC(=O)N(O)CCCCCNC(=O)CCC(=O)N(O)CCCCCNC(=O)CCC(=O)N(O)CCCCCNC(=O)C12CC3CC(CC(Cl)(C3)C1)C2`, the result was inactive.

A further data set concerns SK-N-BE(2)-M17. Nature of the data set: Cytoprotection against H2O2-induced cell death in human SK-N-BE(2)-M17 cells assessed as increase in cell viability at 100 uM treated 2 hrs post 0.8 mM H2O2 treatment measured after 24 hrs by MTT assay. Type of data set: functional, cell-based.
Conditions: not given
`CC(=O)N(O)CCCCCNC(=O)CCC(=O)N(O)CCCCCNC(=O)CCC(=O)N(O)CCCCCNC(=O)C12CC3CC(CC(Cl)(C3)C1)C2`: the outcome was inactive.

For the next data set, the system named is SK-N-BE(2)-M17. Nature of the data set: Cytoprotection against PQ-induced cell death in human SK-N-BE(2)-M17 cells assessed as increase in cell viability at 100 uM pretreated for 2 hrs followed by 1 mM PQ addition measured after 24 hrs by MTT assay.
Conditions: not given
Type of data set: functional, cell-based.
On to `CC(=O)N(O)CCCCCNC(=O)CCC(=O)N(O)CCCCCNC(=O)CCC(=O)N(O)CCCCCNC(=O)C12CC3CC(CC(Cl)(C3)C1)C2`, for which the outcome was inactive.

In another data set the test system is SK-N-BE(2)-M17. Nature of the data set: Cytoprotection against PQ-induced cell death in human SK-N-BE(2)-M17 cells assessed as increase in cell viability at 100 uM treated 2 hrs post 2 mM PQ treatment measured after 24 hrs by MTT assay. Type of data set: functional, cell-based.
Conditions: not given
Take `CC(=O)N(O)CCCCCNC(=O)CCC(=O)N(O)CCCCCNC(=O)CCC(=O)N(O)CCCCCNC(=O)C12CC3CC(CC(Cl)(C3)C1)C2`: the result was inactive.

The next data set concerns SK-N-BE(2)-M17. Nature of the data set: Cytotoxicity against human SK-N-BE(2)-M17 cells at 100 uM 24 hrs by LDH release assay. Type of data set: cell-based. As to conditions: sk-n-be(2)-m17, 24 h. In general terms: LDH leaks from cells whose membrane has failed.
With `CC(=O)N(O)CCCCCNC(=O)CCC(=O)N(O)CCCCCNC(=O)CCC(=O)N(O)CCCCCNC(=O)C12CC3CC(CC(Cl)(C3)C1)C2`, the Activity entry is “Non-Toxic”.

Tested on in a further data set: not listed separately
Nature of the data set: Binding affinity to Fe3+ assessed as [M+H]+ adduct formation by LC-MS/MS analysis.
Conditions: not given
For the molecule `CC(=O)N(O)CCCCCNC(=O)CCC(=O)N(O)CCCCCNC(=O)CCC(=O)N(O)CCCCCNC(=O)C12CC3CC(CC(Cl)(C3)C1)C2`, the outcome was Active.
